Measurements as given in patent EP0937460A2, “Use of an antidiarrheal for the manufacture of a medicament for the treatment of inflammatory conditions” (Adolor Corporation, priority 1994, dated 1995).
Counter-ions that a name gives are not always drawn. Like-named read-outs stand apart in the source and are kept apart here.

Tests used:
TNF production [1] = assay: Inhibition of LPS-stimulated TNF production in the human monocytic cell line THP-1 (ELISA); format: cell-based; conditions: for activity at 10 µM / inhibition at 10 µM: Homo sapiens; for activity at 10 µM: read-out: TNF LEVEL % Control (LPS alone), Ave. ± S.D.
Experimental: Cultures were maintained by the addition of fresh growth medium to a T-75 or T-150 flask of cells in suspension, or by pelleting the cells and re-suspending them in the appropriate volume of fresh medium. Maximum cell density was 1.0 x 10^6 cells per mL and cultures were seeded at a minimum density of 0.2 x 10^6 cells per ml.
(§1) THP-1 cells were plated into 24-well plates at a density of 1.0 x 10^6 cells per mL in 0.5 mL medium per well. […] For measurement of IL-1α and IL-1β production, THP-1 cells were incubated with 500 ng/mL or 50 ng/mL LPS and incubated for 16 hours. Levels of secreted cytokine were measured in cell supernatants as for TNF. Cell-associated species were measured in cell lysates which were prepared by repetitive freeze-thawing of cells. For in vitro screening, drugs at 10 µM concentration were co-administered with LPS. […] Drug effects on cell viability were assessed by the MTT assay. […] Water-soluble drugs were dissolved in aqueous solutions such as RPMI or deionized H20. The final concentration of DMSO in the incubation medium was at or below 0.01% and that of ethanol was at or below 0. 1%. The effect on cell viability was evaluated by the MTT assay.

TNF production [2] = assay: Inhibition of LPS-stimulated TNF production in the mouse macrophage line RAW 264.7 (ELISA); format: cell-based; conditions: for activity at 10 µM: RAW264.7, 6 h, read-out: TNF LEVEL % Control (LPS alone), Ave. ± S.D.; for effectiveness against LPS-stimulated TNF production (in words): drug 10 µM
Experimental: Cells were passaged at confluence by scraping and routinely plated at a density of 0.25 x 10^6 and 0.5 x 10^6 cells per T-75 and T-150, respectively.
Typically, RAW cells were plated at 0.25 x 10^6 cells per well of a 24-well plate, in 0.5 mL media per well on the day prior to experimentation. […] 1%. Drugs were co-administered with the stimulant, LPS. After a 6-hr incubation period with LPS ± drug (n = 3-4), the media from the experimental wells was harvested, the cells were removed by microcentrifugation, and the media assayed for TNF by ELISA. Drugs were screened at 10 µM for their ability to alter TNF production by cells stimulated with 1 µg/mL or 10 ng/mL LPS. Dexamethasone, an anti-inflammatory corticosteroid, served as the reference for inhibition of the LPS response.

TNF production [3] = assay: Inhibition of TPA-stimulated TNF production in human epidermal keratinocytes (ELISA); format: cell-based
IL-1α = assay: LPS-stimulated IL-1α production by THP-1 cells; format: cell-based, human
Experimental: as §1

IL-1β = assay: LPS-stimulated IL-1β production by THP-1 cells; format: cell-based, human
Experimental: as §1

THP-1 cells = assay: MTT assay of THP-1 cell viability
Experimental: as §1

hairless mice [4] = assay: DNCB-induced contact hypersensitivity in hairless mice, ear swelling; format: in vivo, mouse
Experimental: Similar to what has been commonly reported by other investigators, the specific protocol used in these studies involved the application of DNCB (in an acetone:olive oil 4:1 vehicle) to the skin on the posterior portion of the back of hairless mice. Five days later, DNCB was applied to the dorsal surface of the ears. At the indicated time point, the mice were euthanized, ear thickness was measured, and the samples were processed for either RNA extraction, protein analysis, or histology.
Experiments were carried out in an effort to inhibit the DNCB-induced immune reaction with various drugs. […] The left ear was similarly treated with vehicle.
The ability of amiloride to suppress DNCB-induced ear swelling was also examined. In these experiments, mice were sensitized with DNCB, and, five days later, amiloride (2% w/v in 70% propylene glycol: 30% ethanol) was applied to the right ear and vehicle to the left ear 30 minutes and 8 hours after DNCB challenge.

TNF mRNA = assay: TPA-induced TNF mRNA expression in hairless mouse skin (RT-PCR); format: in vivo; conditions: verapamil 4% w/v in ethanol, topical; 3 hour time point; p < 0.01
mice = assay: Skin inflammation induced by 2% sodium lauryl sulfate (SLS) in mice; format: in vivo; conditions: 2% SLS with near saturated verapamil
Experimental: Following the 24 hour exposure, the Hilltop chambers were removed and, after 18 hours, skin thickness readings were taken. […] Table

humans = assay: Skin inflammation models in humans (2% sodium laurel sulfate or 5% nickel sulfate, 24 hour patch test); format: in vivo
Experimental: Human skin inflammation was elicited by either 2% sodium laurel sulfate in normal volunteers (irritant contact dermatitis) or by 5% nickel sulfate in nickel-sensitive individuals (allergic contact dermatitis) using a 24 hour patch test. Following the elicitation, either topical verapamil formulation or a placebo formulation was applied three times daily for two consecutive days on two respective sites. At the end of the two-day topical treatment, the degree of skin inflammation (i.e., erythema, edema and blister formation was assessed by a trained dermatologist. Skin biopsies were taken from the placebo and the active sites and analyzed for skin thickness and TNF levels using immunohistochemical techniques.

KC mRNA = assay: TPA-induced KC mRNA expression in hairless mouse skin (RT-PCR); conditions: verapamil 4% w/v topical; 3 hour; one of three mice; p = 0.04
hairless mice [5] = test system: hairless mice
Experimental: In addition to assessing the cytokine mRNA levels, the time course of the TPA-induced increase in skin thickness was also evaluated. This measurement was made with a micrometer using skin excised from euthanized mice. […] Further increases were typically seen 8 hours with this response being maintained through the 24 hour time point.
Three of the mice were euthanized at the 3 hour time point, and the treated sites were analyzed for TNF mRNA by RT-PCR. The fourth mouse was euthanized at a 24 hour time point, and the thickness of the treated areas of skin was measured using a micrometer.
At the 8 hours time point, the mice were euthanized, the treated areas of skin were excised, and the thickness of the skin was measured using a micrometer.

[6] = Mus musculus, RAW cells, DRUG [10 µM], LPS at 10 ng/mL

N=C(N)NC(=O)c1nc(Cl)c(N)nc1N [Amiloride, amiloride]
activity at 10 µM (TNF production [1]; 6 h, THP-1 cells, DRUG [10 µM], LPS 1 µg/mL): 56 ± 15%
inhibition at 10 µM (TNF production [1]; LPS-stimulated THP-1 cells, drug 10 µM, read-out: inhibition of TNF production): 40%
effectiveness against LPS-stimulated TNF production (in words) (TNF production [1]; LPS-stimulated THP-1 cells, 10 µM): comparatively more effective
IC50 value (50% of the maximal inhibition, as defined by effects at 10 µM) (TNF production [1]; LPS-stimulated TNF production, THP-1 cells): within the same range
activity at 10 µM (TNF production [2]; [6]): 75 ± 25%
effectiveness against LPS-stimulated TNF production (in words) (TNF production [2]; RAW cells): moderately effective
activity at 10 µM (TNF production [3]; Homo sapiens, epidermal keratinocytes, HEK cells, DRUG [10 µM], stimulation by TPA 10 ng/mL, read-out: TNF LEVEL % Control (LPS alone), Ave. ± S.D.): ≥ 100%
level of cell-associated and secreted IL-1α (in words) (IL-1α; THP-1 cells, 10 µM): reduce the level
level of cell-associated and secreted IL-1β (in words) (IL-1β; THP-1 cells, 10 µM): reduce the level
THP-1 cell viability (MTT assay) (THP-1 cells): did not impact
ear thickness, % of pre-challenge values (hairless mice [4]; DNCB + amiloride 2% w/v topical (DNCB alone 135%), p < 0.002): 113%

COc1ccc(CCN(C)CCCC(C#N)(c2ccc(OC)c(OC)c2)C(C)C)cc1OC (racemic) [(±)-Verapamil, verapamil]
activity at 10 µM (TNF production [1]; THP-1, 6 h): 46 ± 9%
inhibition at 10 µM (TNF production [1]; THP-1, read-out: inhibition of TNF production): 54%
activity at 10 µM (TNF production [2]; [6]): 36 ± 1%
inhibition at 0.05 µg/mL (IL-1α; Homo sapiens, THP-1, 16 h, read-out: inhibition of IL-1α levels): 40 to 50%
inhibition at 0.05 µg/mL (IL-1β; Homo sapiens, THP-1, 16 h, read-out: inhibition of IL-1β levels): ~33%
THP-1 cell viability (MTT assay) (THP-1 cells; highest dose tested): did not impact
skin TNF mRNA levels compared to TPA alone (TNF mRNA): significant reduction
swelling of the ear after DNCB challenge (hairless mice [4]; verapamil 4% w/v topical, initial experiment): some suppression
ear swelling after DNCB challenge (hairless mice [4]; verapamil 5% w/v topical, n = 6, repeated experiment): significantly reduced
Skin Thickness (mm, n = 4) (mice; 24 hours occlusion, read 18 hours after removal (2% SLS alone 1.23, untreated 0.59)): 0.65 ± 0.09 mm
Visual Observation (mice; 24 hours under occlusion): Normal
patients in whom dermatitis resolved faster on treated sites (humans; challenged with 2% sodium laurel sulfate): 2 out of 3
patients with skin thickness less on treated sites than placebo sites (humans; topical verapamil three times daily for two days): 4 out of 6
patients with less TNF in the skin biopsies than placebo sites (humans; topical verapamil three times daily for two days, immunohistochemistry): 4 out of 6
KC mRNA levels (KC mRNA): significant suppression

CN(C)C(=O)C(CCN1CCC(O)(c2ccc(Cl)cc2)CC1)(c1ccccc1)c1ccccc1 [Loperamide, 4-(p-chlorophenyl)-4-hydroxy-N,N-dimethyl-α, α-diphenyl-1-piperidine butyramide HCL]
activity at 10 µM (TNF production [1]; THP-1, 6 h): 42 ± 22%
inhibition at 10 µM (TNF production [1]; THP-1, read-out: inhibition of TNF production, LPS-stimulated THP-1 cells, drug 10 µM): ~42%
activity at 10 µM (TNF production [2]; Mus musculus): 62 ± 32%
inhibition at 10 µM (TNF production [2]; Mus musculus, RAW264.7, read-out: inhibition of LPS-stimulated TNF secretion): 62%
effectiveness against LPS-stimulated TNF production (in words) (TNF production [2]; RAW cells): lowering of TNF levels
effect on TPA-stimulated levels of TNF (in words) (TNF production [3]; human keratinocytes, TPA 10 ng/mL, drug 10 µM): very effective
THP-1 cell viability (MTT assay) (THP-1 cells; highest dose tested): did not impact
skin thickness (hairless mice [5]; TPA + loperamide 7.5% solution topical, 8 hour, first experiment (vehicle 0.36 mm, TPA 0.56 mm)): 0.39 mm
skin thickness (hairless mice [5]; TPA + loperamide topical, second experiment (vehicle 0.39 mm, TPA 0.89 mm), p<0.01 vs. TPA alone): 0.57 mm
thickness of skin treated with drug alone compared to vehicle-treated skin (hairless mice [5]; loperamide 7.5% alone, no TPA): unchanged
inhibition of the TPA-induced swelling response (hairless mice [5]; loperamide topical, second experiment): 64%
TPA-induced increase in skin thickness / swelling response (in words) (hairless mice [5]; topical application, loperamide: 8 hour time point, first experiment): completely inhibit
